# According to publication PMC11939470, “The Cyclic Antimicrobial Peptide C-LR18 Has Enhanced Antibacterial Activity, Improved Stability, and a Longer Half-Life Compared to the Original Peptide” (Antibiotics, 2025):
# Where a SMILES comes first, the peptide text is derived from it. Bridges are numbered along the chain shown (N, C = ends).
# Experiments:
# E. coli ATCC25922 [1] = assay: Membrane permeability assay (propidium iodide uptake, flow cytometry); type: cell-based; settings: 1 × MIC (4 μM), 30 min 37 °C, 1 × 10^6 CFU/mL, PBS control 3.25%
# Protocol: The effect of C-LR18 on bacterial membrane permeability was measured using the propidium iodide (PI) uptake assay described in [22]. E. coli ATCC25922 in logarithmic growth phase were adjusted to 1 × 10^6 CFU/mL. C-LR18 was added with the final concentration of 4 μM. The mixtures were incubated for 30 min at 37 °C. […] After eliminating unbound dye by washing twice with PBS, the bacterial cells were detected using a flow cytometer (Ex = 535 nm/Em = 615 nm). The results were analyzed using FlowJo 6.2.1 and GraphPad Prism 5 software.
# E. coli ATCC25922 [2] = assay: Impact of temperature and pH on MIC; type: physicochemical; settings: after 100 °C for 30 min, acid treatment (pH4) 1 h, alkali treatment (pH10) 1 h
# Protocol: The MIC test was performed using the method recommended by the National Committee for Clinical Laboratory Standards (NCCLS) Standards and Guidelines, and the method was modified according to the characteristics of antimicrobial peptides. The bacteria were cultured at 37 °C for 16 h, and the microbial suspension was diluted to a final concentration of 5 × 10^5 CFU/mL. Then, 50 µL of bacterial solution was mixed with 50 µL of MHB containing different concentrations peptides (0.5–256 µM) in a 96-well plate. […] The assays were performed three times. Geometric mean MIC represents the average MIC of the peptide against all the tested strains.
# The impact of temperature on peptides’ antimicrobial activity was also tested.
# KM mice = assay: Acute toxicity (LD50) in mice, tail vein; type: in vivo; settings: for Number of Animal Deaths (r) / Survival Rate (q): 10 mice
# Protocol: The health status of mice was observed, and the mortality data of 5 groups of mice were recorded. The LD50 and 95% confidence limit of C-LR18 for mice were calculated according to the following formula:LD50 = log − 1[Xm − i(ΣP − 0.5)](3) (4) SX50=i∑pq/n 95% Confidence limits of LD50 = log − 1(log − 1LD50 ± 1.96SX50)(5)
# Xm: dose pair value of maximum dose group, i: the difference between the dose pairs of two adjacent groups, P: animal mortality in each group, ΣP: the sum of the mortality of each group of animals, n: number of animals per group, q: survival rate per dose group, […].
# [3] = Half-life and pharmacokinetics in SD rats after caudal vein administration (HPLC); type: in vivo
# Protocol: Half-life of peptides in SD rats was determined via HPLC according to the method described in [31]. The SD rats were maintained at constant room temperature [(25 ± 2) °C] with free access to food and water for 48 h. Each SD rat was weighed to an accuracy of 0.10 g, numbered, and grouped randomly, with 6 rats in each group. LR18 and C-LR18 were injected into SD rats via tail vein at a dose of 5 mg/kg body weight. A total of 200 μL of blood was collected from the orbital venous plexus at different time points of 0, 0.5, 0.8, 1.0, 1.5, 2.5, 3.5, 5, 10, 30, and 60 min, and placed into a centrifuge tube containing 0.5% heparin sodium. After centrifugation at 3000 r/min for 15 min, the supernatant was absorbed into a new centrifuge tube, and then acetonitrile containing 0.1% TFA was added at 1/1 volume. Vortexing for 30 s, the samples were centrifuged at 14,000 r/min for 20 min, the supernatant was aspirated and sterilized using a 0.22 μm sterilization filter, and 30 μL of the sample was used for HPLC determination. The pharmacokinetic parameters were calculated using Phoenix Winnonlin 7.0 software and analyzed with non-atrioventricular model. Drug–time curves were plotted using Graphpad Prim, and Mean ± SD was used to interpolate each point during drug–time curve fitting.
# E. coli ATCC25922 [4] = assay: Bactericidal kinetics assay; type: cell-based; settings: 1 × MIC and 2 × MIC, 1 × 10^6 CFU/mL, 37 °C, dose-dependent, Figure 1f
# Protocol: Bactericidal kinetics assay was performed according to the method outlined by Zhang et al.. […] The mixed solutions were incubated in a shaker at 37 °C. A total of 100 μL of the above mixed solution was absorbed every 20 min and diluted with sterile MH liquid medium, and then 50 μL of bacterial solution was aspirated and evenly coated on the solid MH plate. After incubation at 37 °C for 16–18 h, the bacteria colonies on the plate were counted. The bactericidal kinetics curves of LR18 and C-LR18 against E. coli ATCC25922 were plotted. The experiment was repeated three times.
# E. coli Y1 = assay: Bacterial load in liver and spleen of mice; type: in vivo; settings: 7.5 mg/kg tail vein 1 h after ip E. coli Y1, one mouse every 24 h
# Protocol: One hour after the mice were intraperitoneally injected with 0.5 mL of E. coli Y1 suspension (10^9 CFU/mL), C-LR18 was injected into the mice at a dose of 7.5 mg/kg through the tail vein. The normal saline group was used as negative control, and the polymyxin B group (1 mg/kg) was used as positive control. After that, one mouse was taken every 24 h, sacrificed via cervical dislocation, and the liver and spleen were removed, weighed, and added to PBS buffer for grinding at 3000 r/min for 2 min. The abrasive solution was diluted with sterile PBS (1:10,000), and 0.1 mL diluent was evenly coated in solid MH medium and cultured at 37 °C overnight. Colony counting was performed on the samples, and the bacterial colonization amount in liver and spleen was calculated.
smiles,measurement,setting,value
CC(C)C[C@@H]1NC(=O)[C@H](CCCNC(=N)N)NC(=O)[C@H](CCCNC(=N)N)NC(=O)[C@H](CC(C)C)NC(=O)[C@H](CC(C)C)NC(=O)[C@H](CCCNC(=N)N)NC(=O)[C@H](CC(C)C)NC(=O)[C@@H]2CCCN2C(=O)[C@H](CCCNC(=N)N)NC(=O)[C@H](CCCNC(=N)N)NC(=O)[C@@H]2CCCN2C(=O)[C@H](CC(C)C)NC(=O)[C@H](CCCNC(=N)N)NC(=O)[C@H](CC(C)C)NC(=O)[C@H](CC(C)C)NC(=O)[C@H](CCCNC(=N)N)NC(=O)[C@H](CCCNC(=N)N)NC(=O)[C@H](CC(C)C)NC(=O)[C@@H](N)CSSC[C@@H](C(=O)O)NC1=O [C-LR18] (H-CLRRLLRLPRRPLRLLRRLC-OH; disulfide 1-20; N-terminus and C-terminus assumed),PI fluorescence of treated cells (PI-A+),E. coli ATCC25922 [1],60.6%
same,expansion of MIC,E. coli ATCC25922 [2],2 times
same,Number of Animal Deaths (r),KM mice; 36 mg/kg tail vein,0
same,Survival Rate (q),KM mice; 36 mg/kg tail vein,1
same,Number of Animal Deaths (r),KM mice; 44 mg/kg tail vein,2
same,Survival Rate (q),KM mice; 44 mg/kg tail vein,0.8
same,Number of Animal Deaths (r),KM mice; 53 mg/kg tail vein,5
same,Survival Rate (q),KM mice; 53 mg/kg tail vein,0.5
same,Number of Animal Deaths (r),KM mice; 64 mg/kg tail vein,7
same,Survival Rate (q),KM mice; 64 mg/kg tail vein,0.3
same,Number of Animal Deaths (r),KM mice; 77 mg/kg tail vein,10
same,Survival Rate (q),KM mice; 77 mg/kg tail vein,0
same,95% confidence limit of LD50,"KM mice; Kunming mice, tail vein",28.0 to 50.1 mg/kg
same,half-life in rats relative to LR18,[3]; SD rats iv,4.66 times
same,prolongation of half-life in rats versus LR18,[3]; SD rats iv,10 min
same,Cmax,"[3]; SD rats, tail vein, 5 mg/kg, HPLC, n = 3",254.23 ± 6.30 µg/mL
same,AUC0-t,"[3]; SD rats, tail vein, 5 mg/kg, non-compartmental, HPLC, n = 3 (method: 6 rats per group)",3376.13 ± 37.72 µg·min/mL
same,MRT,"[3]; rat, plasma, iv, SD rats, tail vein, 5 mg/kg, HPLC, n = 3, read-out: MRT0-t (converted)",13.5 min
same,half-life,"[3]; rat, plasma, iv, SD rats, tail vein, 5 mg/kg, HPLC, n = 3, read-out: T1/2β (terminal elimination half-life)",12.7 ± 0.79 min
same,time to complete killing of E. coli ATCC25922,E. coli ATCC25922 [4],≤ 100 min
same,bacterial colonization in liver and spleen,E. coli Y1,significantly less than that in the negative control group
